Assay results: paper PMC5933782, “Molecular structures of cdc2-like kinases in complex with a new inhibitor chemotype” (PLoS ONE, 2018)
Counter-ions that a name gives are not always drawn.

What was measured:
CDK9/cyclin T = CDK9/cyclin T (Homo sapiens, UniProt P50750); test: radiometric protein kinase assay
Procedure: (§1) Buffers. Buffer A: 10 mM MgCl2, 1 mM EGTA, 1 mM DTT, 25 mM Tris-HCl pH 7.5, 50 μg heparin/mL. Buffer C: 60 mM β-glycerophosphate, 15 mM p-nitrophenylphosphate, 25 mM MOPS (pH 7.2), 15 mM EGTA, 15 mM MgCl2, 1 mM DTT, 1 mM sodium vanadate, 1 mM phenylphosphate.
(§2) Kinase activities were assayed in buffer A or C at 30°C at a final ATP concentration of 15 μmol/L. Blank values were subtracted and activities were expressed in percent of the maximal activity, i.e. in the absence of inhibitors. Controls were performed with appropriate dilutions of DMSO.
(§3) Their kinase activity was assayed in buffer A, with 1 mg histone H1/mL, in the presence of 15 μmol/L [γ-33P] ATP (3,000 Ci/mmol; 10 mCi/mL) in a final volume of 30 μL. After 30 min incubation at 30°C, the reaction was stopped by harvesting onto P81 phosphocellulose supernatant (Whatman) using a FilterMate harvester (Packard) and washing in 1% phosphoric acid. Scintillation fluid was added and the radioactivity measured in a Packard counter.
(§4) All data points for construction of dose response curves were recorded in triplicate.

CDK2/cyclin A = molecular target: T1, CDK2/cyclin A (Homo sapiens, UniProt P24941); test: radiometric protein kinase assay; type: biochemical; details: for IC50: 15 μmol/L ATP, read-out: IC50 CDK2/cyclinA
T1 construct: made in house

CLK3 = CLK3 (Mus musculus, UniProt O35492); test: radiometric protein kinase assay
Sequence of CLK3 (O35492 whole entry): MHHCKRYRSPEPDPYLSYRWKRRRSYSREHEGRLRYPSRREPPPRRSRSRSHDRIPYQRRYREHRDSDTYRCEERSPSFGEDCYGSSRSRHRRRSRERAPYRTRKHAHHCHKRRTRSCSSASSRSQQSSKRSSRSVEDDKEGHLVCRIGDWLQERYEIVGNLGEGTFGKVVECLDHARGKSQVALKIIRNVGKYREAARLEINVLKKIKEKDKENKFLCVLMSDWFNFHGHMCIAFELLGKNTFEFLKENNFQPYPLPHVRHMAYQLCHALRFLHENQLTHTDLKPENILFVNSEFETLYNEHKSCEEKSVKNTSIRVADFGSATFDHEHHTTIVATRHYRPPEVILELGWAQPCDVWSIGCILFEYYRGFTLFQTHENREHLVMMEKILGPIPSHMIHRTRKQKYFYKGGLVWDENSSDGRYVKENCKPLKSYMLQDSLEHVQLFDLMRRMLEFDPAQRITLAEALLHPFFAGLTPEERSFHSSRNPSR
Procedure: as §1, §2, §3, §4

CLK1 = CLK1 (Mus musculus, UniProt P22518); test: radiometric protein kinase assay
Sequence of CLK1 (P22518 whole entry): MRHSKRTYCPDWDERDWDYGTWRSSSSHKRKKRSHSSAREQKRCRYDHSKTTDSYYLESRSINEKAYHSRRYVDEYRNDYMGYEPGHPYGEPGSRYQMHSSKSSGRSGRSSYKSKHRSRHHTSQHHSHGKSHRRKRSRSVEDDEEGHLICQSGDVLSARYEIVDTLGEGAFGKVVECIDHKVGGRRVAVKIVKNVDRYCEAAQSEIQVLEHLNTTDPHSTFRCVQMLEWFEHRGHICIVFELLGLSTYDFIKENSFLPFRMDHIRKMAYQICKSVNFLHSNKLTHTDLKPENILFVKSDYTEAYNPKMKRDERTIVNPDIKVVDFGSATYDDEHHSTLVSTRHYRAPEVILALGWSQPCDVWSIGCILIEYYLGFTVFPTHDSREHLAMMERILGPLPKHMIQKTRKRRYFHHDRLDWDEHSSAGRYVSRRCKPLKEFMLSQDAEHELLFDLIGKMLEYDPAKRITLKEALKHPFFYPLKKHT
Procedure: Buffer A: 10 mM MgCl2, 1 mM EGTA, 1 mM DTT, 25 mM Tris-HCl pH 7.5, 50 μg heparin/mL. Buffer C: 60 mM β-glycerophosphate, 15 mM p-nitrophenylphosphate, 25 mM MOPS (pH 7.2), 15 mM EGTA, 15 mM MgCl2, 1 mM DTT, 1 mM sodium vanadate, 1 mM phenylphosphate.
Controls were performed with appropriate dilutions of DMSO. The GS-1, CKS, CDK7/9 tide and RS peptide substrates were obtained from Proteogenix (Oberhausbergen, France).
CDK1/cyclin B (M phase starfish oocytes, native), CDK2/cyclin A and CDK5/p25 (human, recombinant) were prepared as previously described [33]. […] ATP (3,000 Ci/mmol; 10 mCi/mL) in a final volume of 30 μL. After 30 min incubation at 30°C, the reaction was stopped by harvesting onto P81 phosphocellulose supernatant (Whatman) using a FilterMate harvester (Packard) and washing in 1% phosphoric acid. Scintillation fluid was added and the radioactivity measured in a Packard counter.
as §4

CDK5/p25 = molecular target: T2, CDK5/p25 (Homo sapiens, UniProt Q00535); test: radiometric protein kinase assay; type: biochemical; details: for IC50: 15 μmol/L ATP
T2 construct: made in house
T2 sequence (Q00535 whole entry): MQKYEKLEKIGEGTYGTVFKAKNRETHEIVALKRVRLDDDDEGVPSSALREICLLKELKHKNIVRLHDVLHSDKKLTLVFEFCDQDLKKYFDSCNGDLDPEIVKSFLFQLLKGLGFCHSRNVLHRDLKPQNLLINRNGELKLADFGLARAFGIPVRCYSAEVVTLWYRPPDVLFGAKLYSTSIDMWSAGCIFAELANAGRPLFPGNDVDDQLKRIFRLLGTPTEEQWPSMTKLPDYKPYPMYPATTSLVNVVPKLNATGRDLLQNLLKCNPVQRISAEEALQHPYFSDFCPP
T2 sequence (Q15078 99-307 partner limits assumed): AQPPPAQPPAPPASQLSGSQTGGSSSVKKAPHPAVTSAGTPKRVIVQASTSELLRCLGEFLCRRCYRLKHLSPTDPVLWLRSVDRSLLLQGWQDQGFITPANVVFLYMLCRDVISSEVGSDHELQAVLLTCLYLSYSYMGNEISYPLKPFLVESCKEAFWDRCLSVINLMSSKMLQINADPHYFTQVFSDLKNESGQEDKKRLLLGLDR

DYRK1B = DYRK1B (Homo sapiens, UniProt Q9Y463); test: radiometric protein kinase assay; type: biochemical; details: for IC50: 15 μmol/L ATP, read-out: IC50 DYRK 1B
Sequence of DYRK1B (Q9Y463 whole entry): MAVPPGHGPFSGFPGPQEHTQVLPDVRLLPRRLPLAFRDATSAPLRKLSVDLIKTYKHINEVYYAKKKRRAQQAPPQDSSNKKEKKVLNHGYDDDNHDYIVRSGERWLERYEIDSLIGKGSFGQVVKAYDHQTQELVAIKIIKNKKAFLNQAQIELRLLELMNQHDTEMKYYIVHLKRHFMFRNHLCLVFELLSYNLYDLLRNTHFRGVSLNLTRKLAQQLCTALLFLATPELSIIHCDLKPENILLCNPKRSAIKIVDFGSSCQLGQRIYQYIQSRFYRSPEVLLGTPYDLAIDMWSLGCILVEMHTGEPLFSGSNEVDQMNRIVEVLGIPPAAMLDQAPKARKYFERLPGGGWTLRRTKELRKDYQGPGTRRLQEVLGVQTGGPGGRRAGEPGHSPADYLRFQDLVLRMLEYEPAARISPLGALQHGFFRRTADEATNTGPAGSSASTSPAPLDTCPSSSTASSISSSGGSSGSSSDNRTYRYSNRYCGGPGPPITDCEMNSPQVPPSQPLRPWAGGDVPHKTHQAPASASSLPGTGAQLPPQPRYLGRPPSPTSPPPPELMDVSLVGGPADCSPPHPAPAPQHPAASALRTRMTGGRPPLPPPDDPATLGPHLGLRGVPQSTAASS

CLK4 = CLK4 (Mus musculus, UniProt O35493); test: radiometric protein kinase assay
Sequence of CLK4 (O35493 whole entry): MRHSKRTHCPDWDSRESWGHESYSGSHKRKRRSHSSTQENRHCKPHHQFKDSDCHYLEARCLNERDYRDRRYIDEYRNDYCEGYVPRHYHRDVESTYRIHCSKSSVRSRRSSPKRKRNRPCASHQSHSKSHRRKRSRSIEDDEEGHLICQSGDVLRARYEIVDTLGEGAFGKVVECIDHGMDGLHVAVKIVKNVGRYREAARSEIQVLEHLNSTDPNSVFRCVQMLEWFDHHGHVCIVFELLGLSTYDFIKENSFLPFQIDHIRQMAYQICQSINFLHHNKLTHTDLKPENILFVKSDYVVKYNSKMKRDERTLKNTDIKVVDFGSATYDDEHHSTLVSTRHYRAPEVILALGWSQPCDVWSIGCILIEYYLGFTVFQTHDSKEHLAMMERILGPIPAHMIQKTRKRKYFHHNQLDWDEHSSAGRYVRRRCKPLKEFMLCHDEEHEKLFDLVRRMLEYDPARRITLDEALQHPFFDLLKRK
Procedure: as §1, §2, §3, §4

DYRK2 = molecular target: T3, DYRK2 (Homo sapiens, UniProt Q92630); test: radiometric protein kinase assay; type: biochemical; details: for IC50: 15 μmol/L ATP, read-out: IC50 DYRK 2
T3 sequence (Q92630 1-601): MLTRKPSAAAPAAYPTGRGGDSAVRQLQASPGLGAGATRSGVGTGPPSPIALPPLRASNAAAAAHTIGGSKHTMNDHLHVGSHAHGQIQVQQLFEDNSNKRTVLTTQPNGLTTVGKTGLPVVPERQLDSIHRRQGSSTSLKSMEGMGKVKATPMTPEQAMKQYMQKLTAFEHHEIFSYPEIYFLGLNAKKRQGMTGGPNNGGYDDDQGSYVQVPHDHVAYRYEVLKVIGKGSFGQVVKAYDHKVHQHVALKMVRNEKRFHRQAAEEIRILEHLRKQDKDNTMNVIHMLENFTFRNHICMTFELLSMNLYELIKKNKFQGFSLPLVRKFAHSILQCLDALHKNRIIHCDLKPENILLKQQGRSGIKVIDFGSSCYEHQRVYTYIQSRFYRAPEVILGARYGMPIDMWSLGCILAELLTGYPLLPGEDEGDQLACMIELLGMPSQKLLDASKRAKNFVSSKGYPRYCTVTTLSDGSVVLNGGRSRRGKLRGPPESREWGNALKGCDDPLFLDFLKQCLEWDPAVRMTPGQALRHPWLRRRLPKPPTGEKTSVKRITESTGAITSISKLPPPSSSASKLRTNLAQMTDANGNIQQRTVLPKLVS

CDK1/cyclin B = test: radiometric protein kinase assay; type: biochemical, starfish; details: for IC50: 15 μmol/L ATP; for Residual enzyme activity CDK1/cyclin B: 10 µM concentration, ± SEM
GSK-3 = test: radiometric protein kinase assay; type: biochemical, porcine; details: for IC50: 15 μmol/L ATP, read-out: IC50 GSK3; for Residual enzyme activity GSK3: 10 µM concentration, ± SEM
DYRK3 = molecular target: T4, DYRK3 (Homo sapiens, UniProt O43781); test: radiometric protein kinase assay; type: biochemical; details: for IC50: 15 μmol/L ATP, read-out: IC50 DYRK 3
T4 sequence (O43781 1-588): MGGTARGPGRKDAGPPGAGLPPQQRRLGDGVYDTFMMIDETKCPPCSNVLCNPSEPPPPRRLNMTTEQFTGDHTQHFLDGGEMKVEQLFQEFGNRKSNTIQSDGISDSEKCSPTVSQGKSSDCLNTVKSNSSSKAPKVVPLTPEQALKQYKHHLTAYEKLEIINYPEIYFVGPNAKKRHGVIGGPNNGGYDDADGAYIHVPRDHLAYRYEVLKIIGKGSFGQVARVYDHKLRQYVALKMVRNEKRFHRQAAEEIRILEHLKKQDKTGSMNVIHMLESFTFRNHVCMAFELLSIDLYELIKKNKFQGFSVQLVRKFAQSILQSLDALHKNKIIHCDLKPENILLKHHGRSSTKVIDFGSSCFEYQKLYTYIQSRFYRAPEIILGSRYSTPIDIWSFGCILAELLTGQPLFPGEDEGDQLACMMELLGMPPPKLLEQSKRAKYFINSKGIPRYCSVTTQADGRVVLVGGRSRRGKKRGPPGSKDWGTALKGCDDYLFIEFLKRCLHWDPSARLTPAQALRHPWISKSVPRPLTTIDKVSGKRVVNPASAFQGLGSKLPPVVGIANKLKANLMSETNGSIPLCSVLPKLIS

CK1δ/ε = test: radiometric protein kinase assay; type: biochemical, porcine; details: for IC50: 15 μmol/L ATP, read-out: IC50 CK1; for Residual enzyme activity CK1: 10 µM concentration, ± SEM
DYRK1A = DYRK1A (Homo sapiens, UniProt Q13627); test: radiometric protein kinase assay; type: biochemical; details: for IC50: 15 μmol/L ATP, read-out: IC50 DYRK 1A
CLK2 = CLK2 (Mus musculus, UniProt O35491); test: radiometric protein kinase assay
Sequence of CLK2 (O35491 whole entry): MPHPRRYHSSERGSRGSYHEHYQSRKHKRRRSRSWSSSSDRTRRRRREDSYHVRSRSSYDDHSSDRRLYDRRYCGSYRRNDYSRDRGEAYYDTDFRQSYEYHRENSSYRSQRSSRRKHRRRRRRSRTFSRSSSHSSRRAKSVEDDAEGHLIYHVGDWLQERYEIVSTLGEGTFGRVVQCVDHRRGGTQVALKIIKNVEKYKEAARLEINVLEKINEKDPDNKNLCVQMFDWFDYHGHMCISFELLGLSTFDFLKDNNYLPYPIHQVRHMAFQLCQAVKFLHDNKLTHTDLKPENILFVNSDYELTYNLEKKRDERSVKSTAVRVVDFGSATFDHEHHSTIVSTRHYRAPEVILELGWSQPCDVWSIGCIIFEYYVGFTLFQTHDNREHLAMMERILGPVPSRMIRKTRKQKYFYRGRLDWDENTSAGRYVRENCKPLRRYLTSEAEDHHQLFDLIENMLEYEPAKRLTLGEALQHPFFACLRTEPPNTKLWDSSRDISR

Sequence of CDK9/cyclin T (P50750 whole entry): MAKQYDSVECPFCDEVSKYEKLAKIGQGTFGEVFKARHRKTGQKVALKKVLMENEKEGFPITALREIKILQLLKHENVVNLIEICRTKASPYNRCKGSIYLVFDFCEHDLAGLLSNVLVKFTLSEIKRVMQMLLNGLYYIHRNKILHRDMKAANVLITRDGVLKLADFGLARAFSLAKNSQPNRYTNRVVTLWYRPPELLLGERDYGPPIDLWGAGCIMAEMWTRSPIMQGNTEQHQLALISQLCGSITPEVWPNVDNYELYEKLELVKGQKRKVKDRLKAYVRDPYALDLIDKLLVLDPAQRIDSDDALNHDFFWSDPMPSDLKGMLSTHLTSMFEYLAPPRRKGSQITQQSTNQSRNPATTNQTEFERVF
Sequence of CDK9/cyclin T (O60563 whole entry partner): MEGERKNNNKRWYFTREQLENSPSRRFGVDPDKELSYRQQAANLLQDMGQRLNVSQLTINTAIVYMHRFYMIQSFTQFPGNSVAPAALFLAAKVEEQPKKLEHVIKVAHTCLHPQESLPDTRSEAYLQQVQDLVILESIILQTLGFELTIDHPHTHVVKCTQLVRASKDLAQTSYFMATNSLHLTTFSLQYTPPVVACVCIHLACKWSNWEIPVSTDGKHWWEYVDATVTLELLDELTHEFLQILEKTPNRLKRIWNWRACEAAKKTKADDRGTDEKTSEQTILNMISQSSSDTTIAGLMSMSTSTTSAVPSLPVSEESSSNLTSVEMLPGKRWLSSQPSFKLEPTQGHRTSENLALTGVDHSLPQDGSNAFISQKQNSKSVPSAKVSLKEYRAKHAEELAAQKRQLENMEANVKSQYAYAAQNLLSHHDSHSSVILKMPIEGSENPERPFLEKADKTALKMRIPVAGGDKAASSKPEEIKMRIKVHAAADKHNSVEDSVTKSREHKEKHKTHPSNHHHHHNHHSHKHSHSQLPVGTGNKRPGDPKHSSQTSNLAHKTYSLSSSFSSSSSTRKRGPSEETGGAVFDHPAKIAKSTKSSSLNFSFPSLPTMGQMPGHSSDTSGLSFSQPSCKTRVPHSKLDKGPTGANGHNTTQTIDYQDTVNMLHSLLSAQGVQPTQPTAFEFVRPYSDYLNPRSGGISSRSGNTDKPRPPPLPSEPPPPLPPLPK

SMILES	IC50 (CDK9/cyclin T)	IC50 (CDK2/cyclin A)	IC50 (CLK3)	IC50 (CLK1)	IC50 (CDK5/p25)	IC50 (DYRK1B)	IC50 (CLK4)	IC50 (DYRK2)	IC50 (CDK1/cyclin B)	IC50 (GSK-3)	IC50 (DYRK3)	IC50 (CK1δ/ε)	IC50 (DYRK1A)	IC50 (CLK2)	also measured
O=C1NCc2ccc3c(-c4ccc(Cl)cc4)c[nH]c3c21 (as salt: sodium) [8d, 3-(4-Chlorophenyl)-6,7-dihydropyrrolo[3,4-g]indol-8(1H)-one]															melting point: 255 to 257 °C
CN1Cc2ccc3c(-c4ccccc4)c[nH]c3c2C1=O (as salt: sodium) [12d, 7-Methyl-3-phenyl-6,7-dihydropyrrolo[3,4-g]indol-8(1H)-one]															melting point: 265 to 267 °C
CCc1[nH]c2c3c(ccc2c1-c1ccccc1)CNC3=O (as salt: sodium) [8l, 2-Ethyl-3-phenyl-6,7-dihydropyrrolo[3,4-g]indol-8(1H)-one]															melting point: 165 to 170 °C
O=C1NCc2ccc3c(-c4ccc(Cl)c(Cl)c4)c[nH]c3c21 (as salt: sodium) [8e, 3-(3,4-Dichlorophenyl)-6,7-dihydropyrrolo[3,4-g]indol-8(1H)-one]															melting point: 258 to 259 °C
NC(=O)Cn1cc(-c2ccccc2)c2ccc3c(c21)C(=O)NC3 [15c, 2-(8-Oxo-3-phenyl-7,8-dihydropyrrolo[3,4-g]indol-1(6H)-yl)acetamide]	> 10 µM	> 10 µM	> 10 µM	> 10 µM	> 10 µM	> 10 µM	> 10 µM	> 10 µM	> 10 µM	> 10 µM	> 10 µM	> 10 µM	> 10 µM	> 10 µM	
O=C1NCc2ccc3c(-c4ccccc4)c[nH]c3c21 [8a, 3-Phenyl-6,7-dihydropyrrolo[3,4-g]indol-8(1H)-one]	> 10 µM	> 10 µM	> 10 µM	0.046 µM	> 10 µM	4.8 µM	0.12 µM		> 10 µM	> 10 µM	> 10 µM	> 10 µM	> 10 µM	0.21 µM	remaining activity at 10 µM (CDK9/cyclin T; read-out: Residual enzyme activity CDK9/cyclin T): 85 ± 5%; remaining activity at 10 µM (CDK2/cyclin A; 10 µM concentration, ± SEM, read-out: Residual enzyme activity CDK2/cyclin A): 101 ± 6%; remaining activity at 10 µM (CLK3; read-out: Residual enzyme activity CLK 3): 78 ± 9%; remaining activity at 10 µM (CLK1; read-out: Residual enzyme activity CLK 1): 8 ± 2%; remaining activity at 10 µM (CDK5/p25; 10 µM concentration, ± SEM, read-out: Residual enzyme activity CDK5/p25): 107 ± 20%; remaining activity at 10 µM (DYRK1B; 10 µM concentration, ± SEM, read-out: Residual enzyme activity DYRK 1B): 51 ± 9%; remaining activity at 10 µM (CLK4; read-out: Residual enzyme activity CLK 4): 2%; remaining activity at 10 µM (DYRK2; 10 µM concentration, ± SEM, read-out: Residual enzyme activity DYRK 2): 69 ± 15%; Residual enzyme activity CDK1/cyclin B (CDK1/cyclin B): 71±21%; Residual enzyme activity GSK3 (GSK-3): 111±19%; remaining activity at 10 µM (DYRK3; 10 µM concentration, ± SEM, read-out: Residual enzyme activity DYRK 3): 102 ± 13%; Residual enzyme activity CK1 (CK1δ/ε): 91±4%; remaining activity at 10 µM (DYRK1A; 10 µM concentration, ± SEM, read-out: Residual enzyme activity DYRK 1A): 61 ± 12%; remaining activity at 10 µM (CLK2; read-out: Residual enzyme activity CLK 2): 14 ± 3%
O=C1NCc2ccc3c(-c4ccc(Cl)c(Cl)c4)c[nH]c3c21 [8e, 3-(3,4-Dichlorophenyl)-6,7-dihydropyrrolo[3,4-g]indol-8(1H)-one]	> 10 µM	> 10 µM	> 10 µM	0.11 µM	> 10 µM	> 10 µM	0.13 µM	> 10 µM	> 10 µM	> 10 µM	> 10 µM	> 10 µM	> 10 µM	0.69 µM	
CCc1[nH]c2c3c(ccc2c1C)CNC3=O [S18a]															Residual enzyme activity CDK9/cyclin T (CDK9/cyclin T; 10 µM concentration, ± SEM): 93±5%; Residual enzyme activity CDK2/cyclin A (CDK2/cyclin A; 10 µM concentration, ± SEM): 99±8%; Residual enzyme activity CLK 3 (CLK3; 10 µM concentration, ± SEM): 92±12%; Residual enzyme activity CLK 1 (CLK1; 10 µM concentration, ± SEM): 20±2%; Residual enzyme activity CDK5/p25 (CDK5/p25; 10 µM concentration, ± SEM): 100±9%; Residual enzyme activity DYRK 1B (DYRK1B; 10 µM concentration, ± SEM): 46±8%; Residual enzyme activity CLK 4 (CLK4; 10 µM concentration, ± SEM): 7±2%; Residual enzyme activity DYRK 2 (DYRK2; 10 µM concentration, ± SEM): 42±12%; Residual enzyme activity CDK1/cyclin B (CDK1/cyclin B): 94±13%; Residual enzyme activity GSK3 (GSK-3): 97±3%; Residual enzyme activity DYRK 3 (DYRK3; 10 µM concentration, ± SEM): 65±9%; Residual enzyme activity CK1 (CK1δ/ε): 50±6%; Residual enzyme activity DYRK 1A (DYRK1A; 10 µM concentration, ± SEM): 54±1%; Residual enzyme activity CLK 2 (CLK2; 10 µM concentration, ± SEM): 31±4%
O=C1NCc2c(-c3cccc(F)c3)cc3c(-c4ccccc4)c[nH]c3c21 [17c, 5-(3-Fluorophenyl)-3-phenyl-6,7-dihydropyrrolo[3,4-g]indol-8(1H)-one]	> 10 µM	> 10 µM	> 10 µM	7.2 µM	> 10 µM	> 10 µM	3.2 µM	> 10 µM	> 10 µM	> 10 µM	> 10 µM	> 10 µM	> 10 µM	> 10 µM	
Cc1[nH]c2c3c(c(Br)cc2c1-c1ccccc1)CNC3=O [12b, 5-Bromo-2-methyl-3-phenyl-6,7-dihydropyrrolo[3,4-g]indol-8(1H)-one]	> 10 µM	> 10 µM	7.1 µM	0.023 µM	> 10 µM	0.11 µM	< 0.03 µM	0.11 µM	> 10 µM	> 10 µM	0.12 µM	> 10 µM	0.11 µM	0.025 µM	
Cc1cccc(-c2c[nH]c3c4c(ccc23)CNC4=O)c1 [8i, 3-(3-Methylphenyl)-6,7-dihydropyrrolo[3,4-g]indol-8(1H)-one]	> 10 µM	> 10 µM	5.1 µM	0.061 µM	> 10 µM	4.1 µM	0.14 µM	3.1 µM	> 10 µM	> 10 µM	> 10 µM	> 10 µM	2.6 µM	0.41 µM	
CN1Cc2ccc3c(-c4ccccc4)c[nH]c3c2C1=O [12d, 7-Methyl-3-phenyl-6,7-dihydropyrrolo[3,4-g]indol-8(1H)-one]	> 10 µM	> 10 µM	> 10 µM	> 10 µM	> 10 µM	> 10 µM	> 10 µM	> 10 µM	> 10 µM	> 10 µM	> 10 µM	> 10 µM	> 10 µM	> 10 µM	
O=C1NCc2ccc3c(-c4cccc(O)c4)c[nH]c3c21 [8g, 3-(3-Hydroxyphenyl)-6,7-dihydropyrrolo[3,4-g]indol-8(1H)-one]	1.1 µM	> 10 µM	1.7 µM	0.044 µM	> 10 µM	0.39 µM	0.081 µM	0.59 µM	> 10 µM	> 10 µM	2.2 µM	> 10 µM	0.74 µM	0.082 µM	
CN1Cc2ccc3c(-c4ccccc4)cn(C)c3c2C1=O [15e, 1,7-Dimethyl-3-phenyl-6,7-dihydropyrrolo[3,4-g]indol-8(1H)-one]	> 10 µM	> 10 µM	> 10 µM	> 10 µM	> 10 µM	> 10 µM	> 10 µM	> 10 µM	> 10 µM	> 10 µM	> 10 µM	> 10 µM	> 10 µM	> 10 µM	
